The results in this text go back to article PMC11740726 (PNAS Nexus, 2025).

One data set relates to TA100. The following applies: Salmonella typhimurium.
The test system of a further data set is WP2 uvrA. The following applies: Escherichia coli.
For the next data set, the system named is TA98. The settings on record: Salmonella typhimurium.
Data set [1] has as its system SARS-CoV-2^WK-521. Briefly: microbe, parasite or virus in culture. It is filed as cell-based.
A further data set in a line: in vitro. The following applies: African green monkey.
For the next data set, the system named is TA1537. The following applies: Salmonella typhimurium.
Data set [2] concerns SARS-CoV-2^WK-521. Briefly: microbe, parasite or virus in culture. It is filed as cell-based. The settings on record: Severe acute respiratory syndrome coronavirus 2, read-out: EC50, SARS-CoV-2^WK-521, HeLa^hACE2-TMPRSS2.
Another data set deals with SARS-CoV-2^BQ.1.1. Briefly: microbe, parasite or virus in culture. It is filed as cell-based. The settings on record: Severe acute respiratory syndrome coronavirus 2, read-out: SARS-CoV-2^BQ.1.1 in HeLa^hACE2-TMPRSS2 cells EC50.
Data set [3] concerns SARS-CoV-2 Omicron XBB.1.5. Briefly: microbe, parasite or virus in culture. It is filed as cell-based. The following applies: for EC50: Severe acute respiratory syndrome coronavirus 2, read-out: EC50 in the presence of 1 mg/mL human AAG.
A short description of data set [4]: in vivo. The following applies: PXB (human liver-chimeric), mouse, po, 10 mg/kg.
Data set [5] concerns SARS-CoV-2^Omicron EG.5.1. Briefly: microbe, parasite or virus in culture. It is filed as cell-based. The settings on record: Severe acute respiratory syndrome coronavirus 2, read-out: anti-SARS-CoV-2^Omicron EG.5.1 activity EC50 in primary human nasal epithelial (HNEp) cells.
The target in the next data set is SARS-CoV-2 M^pro (Severe acute respiratory syndrome coronavirus 2, UniProt P0DTD1). The experiment in a line: SARS-CoV-2 M^pro enzyme assay (cell-free, fluorogenic substrate). It is filed as biochemical. The settings on record: authentic M^pro; mean ± 1 SD, three assays.
The test system of the next data set is SARS-CoV-2^XBB1.5. The arrangement: species or system B6.Cg-Tg(K18-hACE2)2-Prlmn/J-transgenic mice. The following applies: mouse, in vivo.
Data set [6] relates to primary human nasal epithelial cells.
Data set [7] concerns four Salmonella typhimurium strains (TA100, TA1535, TA98, TA1537) and one Escherichia coli strain (WP2 uvrA).
Data set [8] can be described thus: in vivo. The following applies: ICR, mouse, po, 10 mg/kg.
For another data set, the system named is human calpain. It is filed as biochemical.
The target in the next data set is human cathepsin L (Homo sapiens, UniProt P07711). The experiment in a line: biochemical.
Setting [9] is: Severe acute respiratory syndrome coronavirus 2, Vero C1008, read-out: EC50, SARS-CoV-2^WK-521, VeroE6 +2μM CP-100356.
[10] abbreviates: Severe acute respiratory syndrome coronavirus 2, Vero C1008, read-out: EC50, SARS-CoV-2^WK-521, VeroE6.
[11] abbreviates: Severe acute respiratory syndrome coronavirus 2, Vero C1008, read-out: SARS-CoV-2^WK-521 in VeroE6 cells EC50.
[12] abbreviates: read-out: EC50 against SARS-CoV-2^WK-521 in VeroE6 cells in the presence of CP100356.

Read-outs that look alike come from different tables or passages of the source. Bounds are passed on as bounds.

Chain of human cathepsin L (P07711 114-333): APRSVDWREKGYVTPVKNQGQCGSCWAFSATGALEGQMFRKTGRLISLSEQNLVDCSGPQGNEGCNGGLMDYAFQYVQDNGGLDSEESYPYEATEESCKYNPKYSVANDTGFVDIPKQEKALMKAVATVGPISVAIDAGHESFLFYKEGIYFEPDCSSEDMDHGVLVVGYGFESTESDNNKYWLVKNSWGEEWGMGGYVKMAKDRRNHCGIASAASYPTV

With `NC(=O)C(=Cc1ccc([N+](=O)[O-])o1)c1ccco1` [AF-2, 2-(2-Furyl)-3-(5-nitro-2-furyl)acrylamide], the entries for the “Number of colonies / plate (positive control)” value (“Number of colonies / plate” below) in the data set on TA100, with WP2 uvrA and in the data set on TA98 were 29.0 ± 4. colonies / plate, 10.7± 3.1 colonies / plate and 22.7 ± 3.1 colonies / plate, respectively.

On to `Nc1ccc2cc3ccccc3cc2c1` [Compound 2AA, 2-Aminoanthracene], for which the results for the “Number of colonies / plate” value in the data set on WP2 uvrA and in the data set with TA1535 (Salmonella typhimurium) were 49.0± 7.9 colonies / plate and 15.3 ± 1.2 colonies / plate, respectively.

With `Cn1cnc(Cn2c(=O)[nH]/c(=N\c3cc4cn(C)nc4cc3Cl)n(Cc3cc(F)c(F)cc3F)c2=O)n1` [Ensitrelvir, reference compound], in the data set with SARS-CoV-2^WK-521 [1] (setting [9]), the EC50 is 30 nM. The CC50 in the data set “in vitro” was more than 100000 nM.

`COc1ccc2nc3cc(Cl)ccc3c(NCCCNCCCl)c2c1` [ICR-191, 2-Methoxy-6-chloro-9-[3-(2-chloroethyl)-aminopropylamino] acridine·2HCl]: in the data set with TA1537, the “Number of colonies / plate” value is reported as 37.3± 2.5 colonies / plate.

Take `[N-]=[N+]=[N-].[Na+]` [NaN3, SodiumAzide]: the “Number of colonies / plate” value in the data set with TA1535 was determined as 29.3 ± 9.1 colonies / plate.

What is called half-life is the time needed for the level to fall by half in the phase considered. Take `CC(C)(C)[C@H](NC(=O)C(F)(F)F)C(=O)N1C[C@H]2[C@@H]([C@H]1C(=O)N[C@H](C#N)C[C@@H]1CCNC1=O)C2(C)C` [Nirmatrelvir, reference compound]: the EC50 is 20 nM with SARS-CoV-2^WK-521 [2]; 51 ± 16 nM in the data set on SARS-CoV-2^BQ.1.1; 160 nM in data set [3]; 1140 ± 190 nM in the data set with SARS-CoV-2^WK-521 [1] (setting [10]); 20 ± 10 nM in the data set on SARS-CoV-2^WK-521 [1] (setting [9]); 770 ± 180 nM with SARS-CoV-2^WK-521 [1] (setting [11]). In addition, the EC50 in the data set with SARS-CoV-2^WK-521 [1] (setting [12]) was 36.3 nM; in data set [5], 11100 nM. Besides, the “effect of 5 mg/mL human AAG on antiviral activity” value in data set [3] is listed as “further reduced the activity”. The same molecule gave a half-life in the data set “in vivo [4]” of 1.43 h. In the data set “in vitro”, this molecule yielded a CC50 of more than 100000 nM.

For `CC(C)(C)[C@H](NC(=O)C(F)(F)F)C(=O)N1C[C@H]2[C@@H]([C@H]1C(=O)N[C@@H](C[C@@H]1CCNC1=O)C(=O)c1nc3c(F)cccc3s1)C2(C)C` [TKB245], the EC50 was determined as 20 ± 7 nM in the data set on SARS-CoV-2^WK-521 [1] (setting [11]) and 3.5 nM in the data set on SARS-CoV-2^WK-521 [1] (setting [12]). Moreover, the CC50 in “in vitro” is more than 100000 nM. In addition, the “intracellular concentrations in VeroE6 cells” value with VeroE6 cells is “higher than those of nirmatrelvir”.

Usually IC50 stands for the concentration that gives 50% inhibition. Take `CC(C)(C)[C@H](NC(=O)C(F)(F)F)C(=O)N1C[C@H]2[C@@H]([C@H]1C(=O)N[C@@H](C[C@@H]1CCNC1=O)C(=O)c1nc3cccc(F)c3s1)C2(C)C` [TKB252]: the EC50 in the data set on SARS-CoV-2^BQ.1.1 was 57 ± 23 nM; in the data set on SARS-CoV-2^WK-521 [1] (setting [11]), 62 ± 26 nM. For the same molecule, the IC50 against SARS-CoV-2 M^pro was 200 ± 50 nM. The same molecule yielded a CC50 at 3 days in “in vitro” of more than 100000 nM.

Regarding `CC(C)(C)[C@H](NC(=O)C(F)(F)F)C(=O)N1C[C@H]2[C@@H]([C@H]1C(=O)N[C@@H](C[C@@H]1CCNC1=O)C(=O)c1nc3cc(F)ccc3s1)C2(C)C` [TKB272], the EC50 in the data set with SARS-CoV-2^WK-521 [2] stood at 2.9 nM; in the data set with SARS-CoV-2^BQ.1.1, 2.6 ± 1 nM; in data set [3], 30 nM; in the data set on SARS-CoV-2^WK-521 [1] (setting [10]) it was 15.8 ± 8.9 nM; in the data set on SARS-CoV-2^WK-521 [1] (setting [9]) it was 1 ± 1 nM; in the data set with SARS-CoV-2^WK-521 [1] (setting [11]), 7 ± 1 nM. The EC50 in the data set with SARS-CoV-2^WK-521 [1] (setting [12]) amounted to 0.4 nM; in data set [5], 31 nM. Moreover, the “effect of 5 mg/mL human AAG on antiviral activity” value in data set [3] is listed as “further reduced the activity”. Further, the “Lungs Virus titer” value with SARS-CoV-2^XBB1.5 is reported as 5.1 Log10(PFU/g). In addition, in the data set on SARS-CoV-2^XBB1.5, the “Nasal turbinates Virus titer” value is recorded as 3.2 Log10(PFU/g). Further, the “intracellular concentrations in human primary nasal epithelial cells” value in [6] is “comparable to nirmatrelvir”. Also, the half-life in the data set “in vivo [4]” was 3.12 h; in the data set “in vivo [8]” it was 3.37 h. Moreover, in data set [7], the “genotoxicity in the micro-Ames test” value is reported as “no apparent genotoxicity”. The “growth inhibition of bacterial strains in µAmes test” value in [7] is reported as “did not inhibit the growth of bacterial strains employed”. Besides, the “increase of revertant colonies compared with negative control in µAmes test” value in [7] is “did not increase the number of revertant colonies more than twice”. In addition, the IC50 was more than 2000 nM in the data set with human calpain and more than 16000 nM on human cathepsin L. Besides, the “inhibition of human calpain (target specificity)” value with human calpain is “none of the human cysteine enzymes, cathepsin L or calpain, were appreciably inhibited”. Further, the “inhibition of human cathepsin L (target specificity)” value at human cathepsin L is given as “none of the human cysteine enzymes, cathepsin L or calpain, were appreciably inhibited”. In the data set with HeLa^hACE2-TMPRSS2 cells, the “intracellular concentrations in HeLa^hACE2-TMPRSS2 cells” value was “greater than those of nirmatrelvir”. Further, in “in vitro”, the CC50 turned out to be 98000 ± 2100 nM. The “intracellular concentrations in VeroE6 cells” value with VeroE6 cells is reported as “higher than those of nirmatrelvir”.

Consider `CC(C)(C)[C@H](NC(=O)C(F)(F)F)C(=O)N1C[C@H]2[C@@H]([C@H]1C(=O)N[C@@H](C[C@@H]1CCNC1=O)C(=O)c1nc3ccc(F)cc3s1)C2(C)C` [TKB273], for which the EC50 with SARS-CoV-2^BQ.1.1 amounted to 114 ± 93 nM; with SARS-CoV-2^WK-521 [1] (setting [11]), 43 ± 24 nM. The IC50 at SARS-CoV-2 M^pro was 8.9 ± 4.1 nM. This molecule also showed a CC50 at 3 days in the data set “in vitro” of more than 100000 nM.

`CC(C)C(=O)OC[C@H]1O[C@@H](n2ccc(NO)nc2=O)[C@H](O)[C@@H]1O` [molnupiravir, reference compound]: the EC50 in the data set on SARS-CoV-2^WK-521 [1] (setting [9]) was 840 nM.

Nirmatrelvir + Ritonavir: in the data set with SARS-CoV-2^XBB1.5, the “Lungs Virus titer” value is 5.2 Log10(PFU/g) and the “Nasal turbinates Virus titer” value is 2.4 Log10(PFU/g).
